Series [1] in a line: Experimentally determined logP by RP-HPLC. The format is physicochemical. The following applies: using RP-HPLC. The source says:
Compounds of this type may also be provided with a degradable or cleavable linker, such that monomeric agents are provided in vivo. In this embodiment, the dimeric form need not retain activity or the ability to cross the blood brain barrier, and the nature of the linker therefore is not relevant to activity, only to the ability to form active monomeric species. In general, moderately lipophilic drugs such as PUs cross the BBB by passive diffusion. A good structural understanding for the BBB permeability is still lacking, but several parameters are believed to facilitate such behavior. Lipophilicity was the first of the descriptors to be identified as important for CNS penetration. […] The mean value for ClogP for the marketed CNS drugs is 2.5. […] The rules for molecular weight in CNS drugs have been reviewed, where small molecules may undergo significant passive lipid-mediated transport through the blood brain barrier, when the molecular mass is kept in or below a 400- to 600-Da range (90). PU-DZ8 has a MW of 512. All the QSAR equations emphasize the importance of hydrogen bonding —CNS penetration requires 5 or less hydrogen bond acceptors (91). PU-DZ8 has 4. […] PSA has been used as a predictor for BBB penetration by many investigators (92). In general, drugs aimed at the CNS tend to have lower polar surface areas than other classes (93,94). […]

Series [2] has as its system p35 and Tau phosphorylation on Ser202. Description: One dose PU-DZ8 in hTau mice, cortical S1 fractions. The format is in vivo, mouse. The following applies: 75 mg/kg i.p. On the procedure:
The majority of Tau pathology in hTau mice is located in the cortical brain region. These mice express six isoforms of non-mutant human Tau, but develop AD-like Tau-pathology. Heat-stable fractions (S1) prepared from cortical homogenates of these mice indicate an age-related accumulation of Tau phosphorylated at putative cdk5 sites. […] Aggregate-free Tau (S1) fractions were prepared from the cortical region of these mice and human Tau levels assessed by immunobloting with an antibody specific for 3-repeat domain Tau (RD3). By analogy to experiments on primary neuronal cultures and WT Tau transfected cells, the Hsp90 inhibitor had no effect on soluble WT Tau expression. […] The monoclonal antibody CP13 is commonly used to detect Tau pathology in both early and more advanced stages of Tau aggregate accumulation (41).

A further series concerns the target P-glycoprotein (Homo sapiens (Human), UniProt P08183). As to the kind of experiment: P-glycoprotein substrate status. The following applies: purine scaffold therapeutic. It counts as in vitro ADME.
Series [3] can be described thus: Assessment of PU-DZ8 brain levels by HPLC/MS/MS. It counts as in vivo, mouse. As to conditions: 75 mg/kg i.p. On the procedure: Assessment of PU-DZ8 brain levels. Concentrations of compound were determined and quantitated by a MRM mode using a tandem high-performance liquid chromatography-mass/mass spectrometry (HPLC/MS/MS). A weighed piece of brain was rinsed with saline isotonic solution, dried with gauze and then homogenized in mobile phase (acetonitrile (ACN)/0.1% formic acid=1.2/2.8, v/v). Haloperidol was added as internal standard. PU-DZ8 was extracted in methylene chloride, the organic layer was separated, speedily dried under vacuum and reconstituted in the mobile phase. Compound analysis was performed in the API 4000™ LC/MS/MS (Applied Biosystems) which was coupled with a Shimadzu LC system and a 96-well plate autosampler. A Gemini C18 column (5μ particle size, 50×4.6 mm I.D.) was used for the LC separation. The analyte was eluted under an isocratic condition for 4 min at a flow rate of 0.4 mL/min
One dose of PU-DZ8 (75 mg/kg) was administered intraperitoneally (i.p.) to female mice of 2.5-4 months in age (n=32) and animals were sacrificed in the interval of 0 to 36 h. Both aggregate-free Tau (S1) and insoluble Tau (P3) fractions were prepared from the subcortical and cortical regions of these mice. PU-DZ8 levels in the brain reached 0.35 μg/g (˜700 nM) at 4 h, and the pharmacologically relevant dose was retained for at least 12 h post-administration (0.2 μg/g, ˜390 nM).

Series [4] has as its system p35 and tau phosphorylation. As to the kind of experiment: Five day PU-DZ8 treatment of nine-month old JNPL3 (P301L tau) mice, whole brain. The format is in vivo. The source says:
Transgenic mice: Transgenic mice, JNPL3 line (59) overexpressing mutant human tau (P301L, 4R0N) were used in this study, Mice were heterozygous and on a mixed hybrid genetic background composed of C57BL/DBA2/SW, as published in ref. 59. These mice develop NFTs in the basal telencephalon, diencephalon, brainstem, and spinal cord, with severe pathology accompanied by degeneration in the spinal cord leading to dystonia, paralysis, and death in mice>12 months in age. Nine month-old male JNPL3 mice (n=2) were treated intraperitoneally with PU-DZ8 or vehicle for 5 days. Mice were sacrificed 12 h after last treatment by cervical dislocation under anesthesia.
To further examine the effect of Hsp90 on tau phosphorylation, we used the JNPL3 line of mice expressing mutant (P301L) tau protein (59). Genetic analyses have linked mutations in the tau gene to FTDP-17 (60, 61). Over 20 distinct pathogenic mutations have been identified, with P301L as the most common mutation in tauophaties (33). […] The tau protein in JNPL3 is predominantly human and is phosphorylated at multiple sites: T181 (AT270), S202/T205 (AT8), T212 (AT100), T231 (AT180), S262, S396/S404, S409 and 5422 (59, 62). […] The degree of p35 expression translated well into alleviation of phosphorylation. […] However, in mice where effects were more prominent and p35 expression declined to approximately 20% as compared to control, a significant effect on tau phosphorylation at S202/T205 and T212/S214 and a 50% reduction on T231 was observed. We could not detect a significant amount of tau phosphorylation at T181, site found to be hyperphosphorylated in PHF, tangles and neurofilaments (65). Again, whole brain expression of cdk5 was not affected (FIG. 3).

Where “and” joins values, the source holds several entries; their conditions need not be identical. Equal values may be shown once.

Chain of P-glycoprotein (P08183 whole entry): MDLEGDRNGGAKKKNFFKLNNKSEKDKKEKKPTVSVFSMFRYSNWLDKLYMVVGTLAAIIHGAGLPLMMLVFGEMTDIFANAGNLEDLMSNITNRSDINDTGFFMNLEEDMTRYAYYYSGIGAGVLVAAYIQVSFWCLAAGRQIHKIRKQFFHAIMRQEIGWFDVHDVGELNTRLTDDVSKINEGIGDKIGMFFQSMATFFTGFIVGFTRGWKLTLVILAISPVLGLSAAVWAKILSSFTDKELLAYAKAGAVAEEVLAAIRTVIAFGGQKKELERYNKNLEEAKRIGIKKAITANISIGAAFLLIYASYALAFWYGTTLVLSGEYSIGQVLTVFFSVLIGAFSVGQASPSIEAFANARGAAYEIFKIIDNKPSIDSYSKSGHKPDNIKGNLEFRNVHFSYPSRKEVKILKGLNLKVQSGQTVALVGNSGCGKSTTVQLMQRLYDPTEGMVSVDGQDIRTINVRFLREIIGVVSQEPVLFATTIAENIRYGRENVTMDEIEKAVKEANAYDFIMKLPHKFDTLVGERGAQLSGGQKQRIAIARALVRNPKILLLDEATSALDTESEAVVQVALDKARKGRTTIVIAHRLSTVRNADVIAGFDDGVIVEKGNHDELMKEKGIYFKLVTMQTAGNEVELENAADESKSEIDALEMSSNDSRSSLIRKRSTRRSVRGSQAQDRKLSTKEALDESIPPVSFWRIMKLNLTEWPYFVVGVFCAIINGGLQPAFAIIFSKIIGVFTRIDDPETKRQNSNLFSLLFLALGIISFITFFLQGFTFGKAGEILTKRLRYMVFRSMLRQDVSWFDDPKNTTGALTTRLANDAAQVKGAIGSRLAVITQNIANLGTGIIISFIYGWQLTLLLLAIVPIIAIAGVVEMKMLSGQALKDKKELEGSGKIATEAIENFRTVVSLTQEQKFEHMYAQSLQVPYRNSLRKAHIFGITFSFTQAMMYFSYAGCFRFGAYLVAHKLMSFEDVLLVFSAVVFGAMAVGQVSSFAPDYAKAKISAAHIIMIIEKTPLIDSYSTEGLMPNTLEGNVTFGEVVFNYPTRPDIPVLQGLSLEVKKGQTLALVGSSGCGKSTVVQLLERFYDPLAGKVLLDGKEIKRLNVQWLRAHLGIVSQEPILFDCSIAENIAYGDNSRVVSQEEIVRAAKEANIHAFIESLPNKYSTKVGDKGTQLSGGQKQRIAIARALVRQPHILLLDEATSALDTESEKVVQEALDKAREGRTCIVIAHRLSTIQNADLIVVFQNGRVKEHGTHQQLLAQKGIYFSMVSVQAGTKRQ

In the case of `CC(C)NCCCn1c(Cc2cc3c(cc2I)OCO3)nc2c(N)nc(F)nc21` [PU-DZ8], the “experimentally determined logP” value in series [1] stood at 1.53. Moreover, in series [2] (8 h post-administration), the “Tau phosphorylation on Ser202 (antibody CP13)” value is “alleviation of Tau phosphorylation” and the p35 levels result was “significant time-dependent reduction”. The “soluble WT Tau expression” value in series [2] (cortical S1) is on record as “no effect”. In addition, the P-gp substrate entry at P-glycoprotein is listed as “not a substrate of P-pg”. In addition, in series [3] (12 h post-administration), the “levels in the brain” value is 0.2 μg/g and ~390 nM. The “levels in the brain” value in series [3] (at 4 h) was 0.35 μg/g and ~700 nM. For the same compound, the “whole brain expression of cdk5” value in series [4] (5 days i.p.) was “not affected”. The “compound levels in brain” value in series [4] (5 days i.p., 12 h after last treatment) was “Pharmacologically relevant levels”. Also, the “p35 expression as compared to control” value in series [4] (5 days i.p., mice where effects were more prominent) is recorded as “approximately 20%”. Besides, in series [4] (5 days i.p., whole brain), the “reduction in p35 levels” value is reported as 50%; the “tau phosphorylation at putative cdk5 sites S202/T205 and T212” value is recorded as “significant amelioration”. In series [4] (at 50% reduction in p35 levels), the “phosphorylation on T212/S214 (Ab AT-100)” value is on record as “almost completely”. Also, the “tau phosphorylated at T231 (Ab AT-180)” value in series [4] (at a reduction by 50% in p35 expression) was “No significant effect”. In series [4] (mice where p35 declined to approximately 20% of control), the “reduction of tau phosphorylation on T231” value was determined as 50%.

(Values after patent US10336757B2, “Treatment of neurodegenerative diseases through inhibition of HSP90” (Sloan-Kettering Institute for Cancer Research, priority 2006, dated 2019).)
